Reference: patent US20150265554A1, “Treatment of MeCP-2 Associated Disorders” (UNIVERSITÉ D'AIX-MARSEILLE, priority 2010, published 2015)

How the values were obtained:
[1] = tested on: Mecp2-deficient mice; assay: Lifespan (survival) study, oral cysteamine in drinking water; type: in vivo, mouse; settings: cysteamine in drinking water 225 mg/kg/day from P30, mean±SEM, n=17, p<0.05 vs vehicle (65±2.2 days), Kaplan-Meir log-rank test
Experimental: Experiments were performed on Sprague dawley rats and B6.129P2(C)- MeCP2 tm1-1 Bird mouse model for RTT (Guy, J., Hendrich, B., Holmes, M., Martin, J. E., Bird, A. (2001) A mouse Mecp2-null mutation causes neurological symptoms that mimic Rett syndrome. Nat. Genet. 27, 322-326). The mice were obtained from the Jackson Laboratory and maintained on a C57BL/6 background. The rats were obtained from Charles River Laboratories, France. The experimental procedures were carried out in keeping with the European guidelines for the care and use of laboratory animals (Council Directive […]). For the mouse experiments, hemizygous mutant males (MeCP2^-/y) were generated by crossing heterozygous knockout females to C57BL/6 males. […]
From P30, animals received a cysteamine treatment in their drinking water (225 mg/kg/day) (Sigma-Aldrich; St-Quentin, France). […] Open-field activity was measured in an arena made of clear perspex (38×30 cm). The test session lasted 15 min with data recorded using the Ethovision 2.3.19 tracking system (Noldus Information Technology). Velocity (cm/s) and total distance moved (cm) were recorded. […]

[2] = tested on: Mecp2-deficient mice; assay: Open-field activity (total distance moved, velocity); type: in vivo, mouse
Experimental: Experiments were performed on Sprague dawley rats and B6.129P2(C)- MeCP2 tm1-1 Bird mouse model for RTT (Guy, J., Hendrich, B., Holmes, M., Martin, J. E., Bird, A. (2001) A mouse Mecp2-null mutation causes neurological symptoms that mimic Rett syndrome. Nat. Genet. 27, 322-326). The mice were obtained from the Jackson Laboratory and maintained on a C57BL/6 background. The rats were obtained from Charles River Laboratories, France. The experimental procedures were carried out in keeping with the European guidelines for the care and use of laboratory animals (Council Directive […]). For the mouse experiments, hemizygous mutant males (MeCP2^-/y) were generated by crossing heterozygous knockout females to C57BL/6 males. Genotyping was performed by routine PCR technique according to Jackson Laboratory protocols and as previously described (Viemari, J. C., Roux, J. C., Tryba, A. K., Saywell, V., Burnet, H., Peña, F., Zanella, S., Bévengut, M., Barthelemy-Requin, M., Herzing, L. B., Moncla, A., Mancini, J., Ramirez, J. M., Villard, L., Hilaire, G. (2005) Mecp2 deficiency disrupts norepinephrine and respiratory systems in mice. J. Neurosci. 25, 11521-11530).
From P30, animals received a cysteamine treatment in their drinking water (225 mg/kg/day) (Sigma-Aldrich; St-Quentin, France). Every 2 days, mice were weighted, cysteamine solution renewed and treatment consumption checked. […] Seventy-nine Mecp2 deficient mice were studied (lifespan study, n=17 cysteamine-treated and n=42 untreated; motor evaluation n=10 cysteamine-treated and n=10 untreated). The mice were assigned to each experimental group by an investigator who was blind to their genotype. Open-field activity was measured in an arena made of clear perspex (38×30 cm). The test session lasted 15 min with data recorded using the Ethovision 2.3.19 tracking system (Noldus Information Technology). Velocity (cm/s) and total distance moved (cm) were recorded. Velocity calculations on Ethovision were obtained using an input filter setting the minimal distance moved (0.6 cm) so that ambulations shorter than this value were never taken into account.

## NCCS [cysteamine]
[1]
  life span: 74.8 ± 5.2 days
[2]; Mecp2-deficient mice, chronic oral cysteamine vs placebo group, especially in the later stages
  locomotion in open field arena (total distance moved and velocity): significantly improved locomotion
[2]; Mecp2-deficient mice, oral cysteamine vs vehicle, from P65, p<0.05, n=10 per group
  mouse velocity in open field: significantly increased
[2]; Mecp2-deficient mice, oral cysteamine vs vehicle, from P75, n=10 per group
  total distance traveled in the open field arena during the 15-minute session: statistically increased
[2]; P55, open field 15 min
  total distance, difference between cysteamine treated and placebo group: +3%
  velocity, difference between cysteamine treated and placebo group: +18%
[2]; P65, open field 15 min
  total distance, difference between cysteamine treated and placebo group: +40%
  velocity, difference between cysteamine treated and placebo group: +33%
[2]; P75, open field 15 min
  total distance, difference between cysteamine treated and placebo group: +128%
  velocity, difference between cysteamine treated and placebo group: +65%
[2]; P85, open field 15 min
  total distance, difference between cysteamine treated and placebo group: +485%
  velocity, difference between cysteamine treated and placebo group: +74%
